Measured values taken from patent US12599617B2, “Methods of treating head and neck cancers with hemp extract” (Ecofibre USA Inc., priority 2021, dated 2026).

Tests used:
[1] = test system: patient derived organoids; test: Response / % cell death of patient derived organoids; type: cell-based, human; conditions: for % Cell Death: patient derived organoids treated with the drug
Description: A few of the above materials, as well as additional drugs were tried for response to patient derived organoids in Table 4, below, which details the % of cell death of the patient derived organoids, when treated with the relevant drug product.

[2] = test system: human head and neck cancer organoids; test: Head and neck cancer organoid viability, cannabis extracts and paclitaxel alone or combined
[3] = cited from earlier work
[4] = target: P-glycoprotein (Homo sapiens, UniProt P08183); conditions: in vitro study; cited from earlier work
[5] = target: CYP2C19 enzymes (Homo sapiens, UniProt P33261); conditions: in vitro; cited from earlier work
[6] = test system: grade 2 endometrial cancer organoids; test: Grade 2 endometrial cancer organoid viability, carboplatin alone or with cannabis extract; type: cell-based, human; conditions: carboplatin alone, 50 and 100 μm/mL
[7] = test system: patient derived endometrial cancer cells; test: Patient-derived xenograft (PDX) mouse tumor volume; type: in vivo, mice; conditions: paclitaxel only, 10 mg/kg, 21 days
Description: All treatment group mice were kept alive for up to 10 weeks after drug injection or until the tumor volume grows bigger than 2500 mm^3.

Sequence of P-glycoprotein (P08183 whole entry): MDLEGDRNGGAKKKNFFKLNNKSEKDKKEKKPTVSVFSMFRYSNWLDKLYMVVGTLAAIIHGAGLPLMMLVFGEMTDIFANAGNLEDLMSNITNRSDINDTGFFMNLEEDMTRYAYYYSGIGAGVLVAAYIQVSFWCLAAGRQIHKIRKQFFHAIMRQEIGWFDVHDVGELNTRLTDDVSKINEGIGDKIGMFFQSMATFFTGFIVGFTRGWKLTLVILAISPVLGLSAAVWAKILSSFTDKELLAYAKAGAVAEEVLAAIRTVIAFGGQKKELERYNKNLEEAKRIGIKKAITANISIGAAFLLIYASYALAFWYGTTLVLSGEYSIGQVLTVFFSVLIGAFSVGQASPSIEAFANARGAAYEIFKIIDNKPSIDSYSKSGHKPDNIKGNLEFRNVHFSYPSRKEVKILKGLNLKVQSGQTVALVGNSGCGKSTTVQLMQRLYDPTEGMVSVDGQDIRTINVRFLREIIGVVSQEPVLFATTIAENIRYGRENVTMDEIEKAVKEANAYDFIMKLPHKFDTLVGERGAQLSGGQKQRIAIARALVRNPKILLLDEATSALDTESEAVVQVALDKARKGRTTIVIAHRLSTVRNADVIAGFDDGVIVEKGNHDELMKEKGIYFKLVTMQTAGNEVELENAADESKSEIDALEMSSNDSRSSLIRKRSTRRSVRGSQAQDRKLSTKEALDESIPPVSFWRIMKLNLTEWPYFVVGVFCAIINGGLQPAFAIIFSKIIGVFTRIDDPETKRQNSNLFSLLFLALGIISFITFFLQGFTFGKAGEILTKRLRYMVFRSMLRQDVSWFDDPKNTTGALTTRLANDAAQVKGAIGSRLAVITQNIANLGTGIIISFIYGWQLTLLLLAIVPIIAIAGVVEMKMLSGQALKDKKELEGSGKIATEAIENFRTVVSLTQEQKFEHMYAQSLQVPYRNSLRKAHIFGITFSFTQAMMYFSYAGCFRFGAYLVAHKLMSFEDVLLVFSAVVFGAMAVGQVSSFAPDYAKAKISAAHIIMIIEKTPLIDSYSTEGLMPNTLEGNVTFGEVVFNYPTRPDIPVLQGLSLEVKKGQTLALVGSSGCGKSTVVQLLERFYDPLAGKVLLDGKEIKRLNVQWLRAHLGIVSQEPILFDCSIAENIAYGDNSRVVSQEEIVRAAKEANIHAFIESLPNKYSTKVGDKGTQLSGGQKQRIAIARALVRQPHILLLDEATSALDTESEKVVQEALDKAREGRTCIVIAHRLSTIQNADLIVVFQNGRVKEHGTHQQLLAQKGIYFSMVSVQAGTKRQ
Sequence of CYP2C19 enzymes (P33261 whole entry): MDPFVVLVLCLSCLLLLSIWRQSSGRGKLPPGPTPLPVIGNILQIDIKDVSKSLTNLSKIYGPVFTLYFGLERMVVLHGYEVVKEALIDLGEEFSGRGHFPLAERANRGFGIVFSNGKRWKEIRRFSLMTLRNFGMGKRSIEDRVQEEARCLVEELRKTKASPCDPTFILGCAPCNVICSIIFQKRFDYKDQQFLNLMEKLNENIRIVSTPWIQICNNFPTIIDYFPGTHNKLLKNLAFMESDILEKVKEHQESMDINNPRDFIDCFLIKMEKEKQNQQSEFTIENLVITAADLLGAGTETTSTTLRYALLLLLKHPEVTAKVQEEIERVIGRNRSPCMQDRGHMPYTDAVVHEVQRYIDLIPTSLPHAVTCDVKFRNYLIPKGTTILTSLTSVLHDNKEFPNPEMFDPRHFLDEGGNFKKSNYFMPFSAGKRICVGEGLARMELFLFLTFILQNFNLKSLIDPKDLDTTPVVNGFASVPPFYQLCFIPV

5-Fluorouaracil/Capecitabine
% Cell Death [1]: 61%

C=C(C)[C@@H]1CCC(C)=C[C@H]1c1c(O)cc(CCCCC)cc1O [CBD isolate, cannabidiol]
percent viability of head and neck cancer organoids ([2]; 10 μg/mL cannabis extract): effective in reducing the viability of the head and neck cancer organoids significantly

C=C(C)[C@@H]1CCC(C)=C[C@H]1c1c(O)cc(CCCCC)cc1O [CBD, cannabidiol]
effect on peak plasma concentrations of CBD ([3]; coadministration of rifampicin (a CYP3A4 inducer)): significantly reduced peak plasma concentrations
effect on peak plasma drug concentrations ([3]; coadministration of the CYP3A4 inhibitor ketoconazole): nearly doubled peak plasma drug concentrations
inhibition of P-glycoprotein-mediated drug transport [4]: significantly inhibits P-glycoprotein-mediated drug transport
organoid response ([1]; organoid of the chemoresistant endometrial cancer patient): significant response
inhibition of CYP2C19 [5]: potent inhibitor of CYP2C19 enzymes

C=C(C)[C@@H]1CCC(C)=C[C@H]1c1c(O)cc(CCCCC)c(C(=O)O)c1O [CBDA, cannabidiolic acid]
percent viability of head and neck cancer organoids ([2]; at least 15 μg/mL CBDA): below 10%

CO[C@H]1C(=O)[C@]2(C)[C@@H](OC)C[C@H]3OC[C@@]3(OC(C)=O)[C@H]2[C@H](OC(=O)c2ccccc2)[C@]2(O)C[C@H](OC(=O)[C@H](O)[C@@H](NC(=O)OC(C)(C)C)c3ccccc3)C(C)=C1C2(C)C [Cabazitaxel]
% Cell Death [1]: 37%

N.N.O=C([O-])C1(C(=O)[O-])CCC1.[Pt+2] [Carboplatin]
% Cell Death [1]: 30%
viability [6]: about 50%

N.N.[Cl][Pt][Cl] [Cisplatin]
% Cell Death [1]: 36%

O=P1(N(CCCl)CCCl)NCCCO1 (stereo not drawn) [Cyclosphosphamide]
% Cell Death [1]: 32%

CN(C)/N=N/c1[nH]cnc1C(N)=O [Dacarbazine]
% Cell Death [1]: 32%

COc1cccc2c1C(=O)c1c(O)c3c(c(O)c1C2=O)C[C@@](O)(C(=O)CO)C[C@@H]3O[C@H]1C[C@H](N)[C@H](O)[C@H](C)O1 [Doxorubicin]
% Cell Death [1]: 39%

COc1cc([C@@H]2c3cc4c(cc3[C@@H](O[C@@H]3O[C@@H]5CO[C@@H](C)O[C@H]5[C@H](O)[C@H]3O)[C@H]3COC(=O)[C@H]23)OCO4)cc(OC)c1O [Etoposide]
% Cell Death [1]: 33%

Nc1ccn([C@@H]2O[C@H](CO)[C@@H](O)C2(F)F)c(=O)n1 [Gemcitabine]
% Cell Death [1]: 56%

CCc1c2c(nc3ccc(OC(=O)N4CCC(N5CCCCC5)CC4)cc13)-c1cc3c(c(=O)n1C2)COC(=O)[C@]3(O)CC [Irinotecan]
% Cell Death [1]: 51%

N[C@@H](Cc1ccc(N(CCCl)CCCl)cc1)C(=O)O [Melphalan]
% Cell Death [1]: 40%

O=C1c2c(O)ccc(O)c2C(=O)c2c(NCCNCCO)ccc(NCCNCCO)c21 [Mitoxantrone]
% Cell Death [1]: 50%

CC(=O)O[C@H]1C(=O)[C@@]2(C)[C@H]([C@H](OC(=O)c3ccccc3)[C@]3(O)C[C@H](OC(=O)[C@H](O)[C@@H](NC(=O)c4ccccc4)c4ccccc4)C(C)=C1C3(C)C)[C@]1(OC(C)=O)CO[C@@H]1C[C@@H]2O [Paclitaxel]
organoid viability ([2]; human, 14 days, 16 nm/mL): around 60%
organoid viability ([2]; paclitaxel alone, 4 nm/mL): virtually no impact on the organoid viability
effect on tumor volume [7]: in essence ineffective after an initial reduction at day 10
% Cell Death [1]: 39%

CCCCCc1cc(O)c2c(c1)OC(C)(C)[C@@H]1CCC(C)=C[C@@H]21 [THC, Δ-9-tetrahydrocannabinol]
onset to reach peak concentration ([3]; oral THC formulations): ~120 min

Cn1nnc2c(C(N)=O)ncn2c1=O [Temozolomide]
% Cell Death [1]: 40%

COc1cc2c(cc1O)CCN[C@]21CS[C@@H]2c3c(OC(C)=O)c(C)c4c(c3[C@H](COC1=O)N1[C@@H]2[C@H]2c3c(cc(C)c(OC)c3O)C[C@@H]([C@@H]1O)N2C)OCO4 [Trabectedine]
% Cell Death [1]: 32%

CC[C@]1(O)C[C@@H]2CN(CCc3c([nH]c4ccccc34)[C@@](C(=O)OC)(c3cc4c(cc3OC)N(C)[C@H]3[C@@](O)(C(=O)OC)[C@H](OC(C)=O)[C@]5(CC)C=CCN6CC[C@]43[C@@H]65)C2)C1 [Vinblastine]
% Cell Death [1]: 38%

CCC1=C[C@@H]2CN(C1)Cc1c([nH]c3ccccc13)[C@@](C(=O)OC)(c1cc3c(cc1OC)N(C)[C@H]1[C@@](O)(C(=O)OC)[C@H](OC(C)=O)[C@]4(CC)C=CCN5CC[C@]31[C@@H]54)C2 [Vinorelbine]
% Cell Death [1]: 45%

Bleomycin
% Cell Death [1]: 53%
